Test results taken from patent US5304474A, “Hydrophobic peptide esters and amides” (Board of Regents, The University of Texas System, priority 1991, dated 1994).
Peptide text beside a SMILES is read from it.

Columns and labels:
[1] = Generation of dipeptide methyl esters from amino acid methyl esters by MP or PMN (TLC); format: in vitro ADME, human; conditions: equal concentrations of Leu-OMe, Val-OMe or Phe-OMe added
Method: MP or PMN (prepared as in Example 1) at a concentration of 25×10^6 per ml were suspended in PBS and incubated with 25 mM Leu-OMe for 20 minutes at 22~C. Cell suspensions were then centrifuged at 1000 g for 10 minutes and the supernatants harvested and freeze-dried at -70~C., 100 millitorr atmospheric pressure. In some experiments, Leu-OMe-treated MP or PMN were sonicated to increase the yield of the reaction product. Samples were then extracted with methanol for application to thin layer chromatography (TLC) plates ([…]×20 cm^2, Analtech, Newark, Del.). Following development with chloroform/methanol/acetic acid (19 1:12.5 by volume), 1 cm bands were eluted with methanol, dried under nitrogen, and resuspended in 1 ml PBS. Mass spectra were obtained with a Finnegan Model 4021 automated EI/CI, GC/MS system coupled to an Incos data system. […]
In order to determine whether MP or PMN could generate the relevant dipeptide methyl esters from these amino acid methyl esters, TLC analysis of the supernatants of MP and PMN incubated with these compounds was carried out. […] However, when equal concentrations of Leu-OMe, Val-OMe, or Phe-OMe were added to MP or PMN, the concentrations of Val-Val-OMe generated were 50 to 80% of those found for Leu-Leu-OMe, while Phe-Phe-OMe was detected at only 10-30% of the levels of Leu-Leu-OMe. […]

[2] = system: natural killer cells (NK); experiment: NK function: lysis of K562 target cells (51Cr release) after preincubation of lymphocytes with compound; conditions: lymphocytes exposed 15 minutes at room temperature (FIG. 4, FIG. 5)

concentration generated by MP or PMN, relative to Leu-Leu-OMe [1]: 10-30%
SMILES: COC(=O)[C@H](Cc1ccccc1)NC(=O)[C@@H](N)Cc1ccccc1 [Phe-Phe-OMe] (H-Phe-Phe-OMe)
NK toxicity / effect on NK function, in words [2]: less NK toxic than either Leu-Phe-OMe or Phe-Leu-OMe
